Results on 28 compounds are retold here after paper PMC12378621, “Benzo-ring modification on Malaria Box hit MMV008138: effects on antimalarial potency and microsomal stability” (RSC Medicinal Chemistry, 2025).

Values joined by “and” are separate entries in the source; they are usually repeats but may differ in a detail not shown here. Equal entries are not always repeated. Where two headings read alike, the source gives them in different places.

Series [1] relates to P. falciparum (Dd2 strain). Put plainly: ABS P. falciparum growth inhibition, SYBR Green I assay, 72 h endpoint. The series is classed as cell-based, Plasmodium falciparum. Particulars: for EC50: Plasmodium falciparum, DD2, SYBR Green I, 72 h endpoint, read-out: Dd2 strain P. falciparum growth inhibition EC50; for loss of growth inhibition potency (EC50) relative to 1: Dd2 strain. How it is done:
Parasites were maintained in O-positive human erythrocytes (Grifols, Memphis, TN, USA) at 5% hematocrit in RPMI 1640 medium supplemented with 5 g L^−1 Albumax I (Gibco Life Technologies), 2 g L^−1 glucose (Sigma-Aldrich), 2.3 g L^−1 sodium bicarbonate (Sigma-Aldrich), 370 μM hypoxanthine (Sigma-Aldrich), 25 mM HEPES, and 20 mg L^−1 gentamicin (Gibco Life Technologies). The parasites were kept at 37 °C under reduced-oxygen conditions (5% CO2, 5% O2, and 90% N2).
(§1) […]. MMV008138 (1) was used as control. The percentage of growth was normalized to that of untreated control parasites in the presence of 0.1% DMSO. Background determinations were made using uninfected erythrocytes. Two or more independent experiments in duplicate were performed. The EC50 values were calculated with GraphPad Prism 9 (GraphPad Software Ltd.) using nonlinear regression curve fitting with variable slope (four parameters) and represent the average and their standard error of the mean (S.E.M.). To assess whether 20a–e specifically targeted the apicoplast, the recovery of growth in the presence of inhibitor and isopentenyl diphosphate (IPP) was performed as described previously.[8] Briefly, parasites were grown in the presence or absence of 200 μM IPP along with a serial dilution (10 μM to 0.01 μM) or single concentration (10 or 20 μM) of drug. […] All conditions were set in 96-well half area plates using highly synchronous ring-stage parasite cultures (100 μL per well at 1% hematocrit and 1% parasitemia) and incubated for 72 h under normal culture conditions. Parasite growth was measured by the SYBR green I assay.

The subject of series [2] is Plasmodium berghei ANKA expressing luciferase (PbGFP-Luccon). Kind of series: In vivo efficacy in P. berghei-infected mice (luminescence on Day 7). As to the method: 2. In vivo efficacy studies of 1 (NYU) in P. berghei-infected mice (po and iv) Efficacy of 1 in P. berghei-infected mice was assessed at the Anti-Infectives Core Facility, Department of Microbiology, Grossman School of Medicine, New York University.
A. Oral Administration Protocol
Three groups of five female Swiss Webster mice weighing 25 to 30 g were used for vehicle […]
berghei ANKA expressing luciferase (PbGFP-Luccon) obtained from a donor infected mouse.10 […]
2 to 6 and imaged on day 7.
Figure S1. Dosing and imaging timeline of P. berghei-infected mice. […]
Day 7 as described in the text.
The vehicle for all groups was 0.5% (hydroxypropyl)methyl cellulose, 0.5% Tween-80.
For the surviving mice, o n day 7 after infection, mice were anesthetized by inhalation of isofluorane and injected via i.p. with 150 mg/kg of luciferase substrate dissolved in PBS (D-Luciferin Potassium Salt , Gold Biotechnology ).
Mice were imaged 5 to 10 min after inj ection of luciferin using an IVIS imager (Lumina II In Vivo Imaging System; Perkin -Elmer). The data acquisition and analysis were performed with LivingImage (Xenogen). Accumulated light intensity was measured in each mouse to determine the baseline infection levels before treatment .
(1 picture or pasted object on this page, not shown here)
B. IV Administration Protocol
One group of four female Swiss Webster mice weighing 25 to 30 g were used for vehicle control, and groups of five mice were used for 1 treatment (IV, 2 x 30 mg/kg/d) and the positive […]
On Day 0, mice were infected via intraperitoneal (i.p.) […]
from a donor infected mouse. 10 As shown below in Figure S2 (and legend), mice were treated […]
Figure S2. Dosing and imaging timeline of P. berghei-infected mice. Vehicle and 1 (30 mpk) treatments were administered IV twice -daily on Days 2-6. […]
administered i .p. once-daily. Mice were imaged on Day 7, as described in the text.
The vehicle for this study was 30%PEG, 40% Captisol (30%w/v solution).
Table S2. Luminescence Data after background subtraction for IV dosing of Vehicle, 1, and IP […]
Table S9. Concentration of 20c vs time in mice. […]
Figure S6. Dosing and imaging timeline of P. berghei-infected mice. […]

The test system of series [3] is P. falciparum (Dd2 strain). Particulars: 72 h exposure, multidrug-resistant Dd2 strain; reported values; read-out: Dd2 strain EC50; cited from earlier work.
For series [4], the system named is P. falciparum (Dd2 strain). Put plainly: Metabolic rescue of parasite growth by isopentenyl diphosphate (IPP) supplementation. Format: cell-based, Plasmodium falciparum. Particulars: drug at 10 μM. How it is done: as §1
The nature of series [5]: Mouse microsomal stability (authors' laboratory, UPLC/MS/MS). Particulars: presence of NADPH. How it is done: Mouse microsomal stability of 20a, 20c, 20d was first assessed in our laboratory. […]
and coumarin were used as controls . Microsomal stability was assessed by ultra-performance liquid chromatography and high -resolution mass spectrometry […]
MA). Potassium phosphate monobasic, potassium phosphate dibasic, and coumarin were purchased from Sigma-Aldrich (St. Louis, MO). Briefly, compound incubations were carried out by the addition of mouse liver microsomes (0.5 mg/ml) in 0.05 M potassium phosphate buffer (pH 7.4), solution A and B, and preincubated at 37°C for 5 min. Control experiments were also carried out in the absence of NADPH solution A and B. Coumarin reaction was used as positive control. Reactions were terminated by adding acetonitrile. Sample analysis was performed on an IonKey/MS system composed of an ACQUITY UPLC M-Class, the ionKey source, and an iKey BEH C18 130 Å 1.7 µm 150 µm x 50 mm column coupled to a Synapt G2-Si mass spectrometer (Waters Corporation, Milford, MA, USA). Separation was accomplished using a binary gradient system consisting of 0.1% formic acid in water (mobile phase A) and 0.1% formic acid in acetonitrile (mobile phase B). The linear gradient was programmed as follows: 0-3 min 1% B, 3- […]
was 3 µL/min, the injection volume was 3 µL in full loop mode, and the iKey temperature was set at 40°C. MS analyses were performed acquiring in MSE mode from 80 to 1500 m/z in positive electrospray ionization mode with a capillary voltage of 3 kV. Data were collected in two channels all the time: low collision energy (6.0 V), for the molecular ions, and high collision energy (15-40 V), for product ions. The source temperature was set at 110°C. Leucine […]
scan at 20 s intervals. Infusion flow rate for lock mass was 1 μL/min. The microsomal stability was determined using MassLynx software (Waters Corporation, Milford, MA, USA). Relative amounts were calculated by comparing the peak area of each evaluated compound at time 0 minutes to its corresponding area at times 45, 90 and 180 minutes to return a ratio.

[6] abbreviates: Table S2, Days 2-6, imaged Day 7, Cmpd 1 30 mg/kg 2 x daily IV, CQ 20 mg/kg 1 x daily i.p.
[7] abbreviates: Table 2, enantiopure, average ± S.E.M.

On to `Cc1cccc2[nH]c3c(c12)C[C@@H](C(=O)O)N[C@@H]3c1ccc(Cl)cc1Cl` (racemic) [(±)-16a], for which the concentration for a half-maximal effect (EC50) (commonly the concentration at which the effect is half-maximal) in series [1] (Table 1, racemic samples) is more than 10 µM.
In the case of `Cc1ccc2[nH]c3c(c2c1)C[C@@H](C(=O)O)N[C@@H]3c1ccc(Cl)cc1Cl` (racemic) [(±)-16b], in series [1] (Table 1, racemic samples), the EC50 was more than 10 µM.
The same measure, in the same setting: to `Cc1ccc2c3c([nH]c2c1)[C@@H](c1ccc(Cl)cc1Cl)N[C@H](C(=O)O)C3` (racemic) [(±)-16c] belongs more than 10 µM; to `Cc1cccc2c3c([nH]c12)[C@@H](c1ccc(Cl)cc1Cl)N[C@H](C(=O)O)C3` (racemic) [(±)-16d], more than 10 µM.
Same read-out and setting: in the case of `O=C(O)[C@@H]1Cc2c([nH]c3cccc(C(F)(F)F)c23)[C@@H](c2ccc(Cl)cc2Cl)N1` (racemic) [(±)-17a] it was more than 10 µM; in that of `O=C(O)[C@@H]1Cc2c([nH]c3cc(C(F)(F)F)ccc23)[C@@H](c2ccc(Cl)cc2Cl)N1` (racemic) [(±)-17c], 1.25 to 2.5 µM; in that of `O=C(O)[C@@H]1Cc2c([nH]c3ccc(Br)cc23)[C@@H](c2ccc(Cl)cc2Cl)N1` (racemic) [(±)-18b], more than 10 µM.
As to `O=C(O)[C@@H]1Cc2c([nH]c3cccc(Cl)c23)[C@@H](c2ccc(Cl)cc2Cl)N1` (racemic) [(±)-19a], the EC50 in series [1] (Table 1, racemic samples) was more than 10 µM.
As for `CCN(CC)CCCC(C)Nc1ccnc2cc(Cl)ccc12` (centres unmarked) [CQ, chloroquine], the “Luminescence AVG” value in series [2] (Table S1, oral 1 x daily Days 2-6, imaged Day 7, CQ 20 mg/kg) is 4.65E+03. The “Live/Dead and luminescence, individual mice” value in series [2] (Table S1, oral 1 x daily Days 2-6, imaged Day 7, Cmpd 1 45 mg/kg, CQ 20 mg/kg) is 4.72E+03 and 4.45E+03 and 4.90E+03 and 4.60E+03 and 4.61E+03. In addition, in series [2] (setting [6]), the “Luminescence after background subtraction AVG” value was 2.29E+03; the “Luminescence after background subtraction, individual mice” value is 0.00E+00 and 4.64E+03 and 2.76E+03 and 3.48E+03. In addition, the “Luminescence after background subtraction, individual mice” value in series [2] (Table S10, 40 mg/kg 1 x daily PO Days 2-6, imaged Day 7) was 4.90E+03 and 3.85E+03 and 4.20E+03. For the same compound, in series [2] (oral Days 2-6), the “treated mice survived to Day 7” value stood at 5.
Consider `O=C(O)[C@@H]1Cc2c([nH]c3ccccc23)[C@@H](c2ccc(Br)cc2Cl)N1` [Compound 2], for which the EC50 in series [3] is 0.32 ± 0.06 µM.
With `O=C(O)[C@@H]1Cc2c([nH]c3ccccc23)[C@@H](c2ccccc2Cl)N1` [Compound 3], the EC50 in series [3] is 3.28 µM.
For the compound `O=C(O)[C@@H]1Cc2c([nH]c3ccccc23)[C@@H](c2ccc(Cl)cc2)N1` [Compound 4], in series [3], the 50% effective concentration (EC50) is 1.17 µM.
In the case of `O=C(O)[C@@H]1Cc2c([nH]c3ccccc23)[C@@H](c2ccccc2)N1` [Compound 5], in series [3], the EC50 is more than 10 µM.
For the compound `NC(=O)[C@@H]1Cc2c([nH]c3ccccc23)[C@@H](c2ccc(Cl)cc2Cl)N1` [Compound 6], the EC50 in series [3] was 1.2 µM.
As for `CNC(=O)[C@@H]1Cc2c([nH]c3ccccc23)[C@@H](c2ccc(Cl)cc2Cl)N1` [Compound 7], the EC50 in series [3] is 0.19 ± 0.03 µM.
Consider `CCNC(=O)[C@@H]1Cc2c([nH]c3ccccc23)[C@@H](c2ccc(Cl)cc2Cl)N1` [Compound 8], for which the EC50 in series [3] was approximately 5 µM.
For `CCCCNC(=O)[C@@H]1Cc2c([nH]c3ccccc23)[C@@H](c2ccc(Cl)cc2Cl)N1` [Compound 9], the EC50 in series [3] is more than 10 µM.
On to `CC(C)NC(=O)[C@@H]1Cc2c([nH]c3ccccc23)[C@@H](c2ccc(Cl)cc2Cl)N1` [Compound 10], for which, in series [3], the EC50 is approximately 10 µM.
For the compound `O=C(O)[C@@H]1Cc2c([nH]c3cccc(Br)c23)[C@@H](c2ccc(Cl)cc2Cl)N1` [Compound 18a], the EC50 in series [1] (setting [7]) was more than 10 µM.
As for `O=C(O)[C@@H]1Cc2c([nH]c3cc(Br)ccc23)[C@@H](c2ccc(Cl)cc2Cl)N1` [Compound 18c], the “loss of growth inhibition potency (EC50) relative to 1” value in series [1] came out at 17 fold. The EC50 in series [1] (setting [7]) was found to be 4.3 ± 0.6 µM.
On to `O=C(O)[C@@H]1Cc2c([nH]c3c(Br)cccc23)[C@@H](c2ccc(Cl)cc2Cl)N1` [Compound 18d], for which the EC50 in series [1] (setting [7]) was more than 10 µM.
Consider `O=C(O)[C@@H]1Cc2c([nH]c3cc(Cl)ccc23)[C@@H](c2ccc(Cl)cc2Cl)N1` [Compound 19c], for which the “loss of growth inhibition potency (EC50) relative to 1” value in series [1] came out at 5 fold. The EC50 in series [1] (setting [7]) worked out at 1.3 ± 0.1 µM.
For `O=C(O)[C@@H]1Cc2c([nH]c3ccc(F)cc23)[C@@H](c2ccc(Cl)cc2Cl)N1` [Compound 20b], the EC50 in series [1] (setting [7]) is 1.25 to 2.5 µM.
As to `O=C(O)[C@@H]1Cc2c([nH]c3cc(F)cc(F)c23)[C@@H](c2ccc(Cl)cc2Cl)N1` [Compound 20e], in series [1] (setting [7]), the EC50 is 0.964 ± 0.063 µM. Further, the “% recovery (200 μM IPP)” value in series [4] was determined as 80%@10 μM.
For `N#Cc1cccc2[nH]c3c(c12)C[C@@H](C(=O)O)N[C@@H]3c1ccc(Cl)cc1Cl` [Compound 21a], the EC50 in series [1] (setting [7]) is more than 10 µM.
On the same count and under the same terms, in the case of `N#Cc1ccc2[nH]c3c(c2c1)C[C@@H](C(=O)O)N[C@@H]3c1ccc(Cl)cc1Cl` [Compound 21b] it was more than 10 µM; in that of `N#Cc1ccc2c3c([nH]c2c1)[C@@H](c1ccc(Cl)cc1Cl)N[C@H](C(=O)O)C3` [Compound 21c], more than 20 µM.
Consider `O=c1ccc2ccccc2o1` [coumarin], for which the “% drug remaining” value in series [5] (0 min) was determined as 100%; in series [5] (45 min), 27%; in series [5] (90 min), 5%.
